# What was measured:
# [1] = biological target: T1, Gastrin/cholecystokinin type B receptor (Rattus norvegicus) (UniProt P30553); assay: Evaluated for Cholecystokinin type B receptor antagonistic activity in isolated lumen-perfused immature rat stomach; format: functional, tissue-based
# T1 sequence (whole entry): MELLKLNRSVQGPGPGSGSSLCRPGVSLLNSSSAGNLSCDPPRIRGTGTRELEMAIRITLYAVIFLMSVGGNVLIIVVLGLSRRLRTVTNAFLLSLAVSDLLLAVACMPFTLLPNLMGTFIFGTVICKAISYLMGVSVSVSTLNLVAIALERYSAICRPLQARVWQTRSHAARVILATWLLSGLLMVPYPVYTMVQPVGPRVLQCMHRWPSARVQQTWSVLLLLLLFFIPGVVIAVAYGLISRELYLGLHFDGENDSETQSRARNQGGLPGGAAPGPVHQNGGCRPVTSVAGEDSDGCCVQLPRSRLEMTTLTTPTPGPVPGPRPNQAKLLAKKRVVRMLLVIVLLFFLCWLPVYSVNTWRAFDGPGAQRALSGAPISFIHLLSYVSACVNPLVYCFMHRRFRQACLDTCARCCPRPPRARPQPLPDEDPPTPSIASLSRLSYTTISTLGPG
# [2] = biological target: T2, Gastrin/cholecystokinin type B receptor (Mus musculus, UniProt P56481); assay: Evaluated for Cholecystokinin type B receptor antagonistic activity in which 20 pM [125I]BH-CCK-8S was used to label CCKB/gastrin binding sites in mouse cortical homogenates
# T2 sequence (P56481 whole entry): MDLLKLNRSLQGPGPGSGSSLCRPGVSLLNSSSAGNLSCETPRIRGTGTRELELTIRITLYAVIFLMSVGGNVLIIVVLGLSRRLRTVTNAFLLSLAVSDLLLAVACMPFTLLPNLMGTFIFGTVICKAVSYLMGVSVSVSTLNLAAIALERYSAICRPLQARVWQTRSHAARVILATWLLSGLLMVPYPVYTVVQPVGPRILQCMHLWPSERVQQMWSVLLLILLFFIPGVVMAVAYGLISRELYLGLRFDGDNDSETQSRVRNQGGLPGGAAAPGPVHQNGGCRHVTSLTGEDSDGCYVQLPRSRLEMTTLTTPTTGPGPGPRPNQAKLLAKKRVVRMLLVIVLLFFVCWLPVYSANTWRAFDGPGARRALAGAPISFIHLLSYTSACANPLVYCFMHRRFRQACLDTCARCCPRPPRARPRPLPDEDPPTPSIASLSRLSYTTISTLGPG
compound,measurement,setting,value
O=C(O)c1cc(NC(=O)C2Cc3ccccc3CN2C(=O)c2cc3[nH]cnc3cc2C(=O)NCC23CC4CC(CC(C4)C2)C3)cc(C(=O)O)c1 (stereo not given),pKB,[1],7.64
same,IC50,[2],178 nM
O=C(O)c1cc(NC(=O)C2Cc3ccccc3CCCN2C(=O)c2cc3[nH]cnc3cc2C(=O)NCC23CC4CC(CC(C4)C2)C3)cc(C(=O)O)c1 (stereo not given),pKB,[1],7.93
same,IC50,[2],224 nM
O=C(O)c1cc(NC(=O)[C@H](Cc2ccccc2)NC(=O)c2cc3[nH]cnc3cc2C(=O)NCC23CC4CC(CC(C4)C2)C3)cc(C(=O)O)c1,pKB,[1],9.08
same,IC50,[2],5.25 nM
O=C(O)c1cc(NC(=O)C2Cc3ccccc3CCCCN2C(=O)c2cc3[nH]cnc3cc2C(=O)NCC23CC4CC(CC(C4)C2)C3)cc(C(=O)O)c1 (stereo not given),pKB,[1],9.13
same,IC50,[2],5.01 nM
O=C(O)c1cc(NC(=O)C2Cc3ccccc3CCN2C(=O)c2cc3[nH]cnc3cc2C(=O)NCC23CC4CC(CC(C4)C2)C3)cc(C(=O)O)c1 (stereo not given),pKB,[1],7.66
same,IC50,[2],234 nM

# Reference: ChEMBL document CHEMBL1129870, “INCORPORATION OF CONFORMATIONALLY CONSTRAINED PHENYLALANINE DERIVATIVES TIC, SIC, HIC AND NIC INTO A CHOLECYSTOKININ-B/GASTRIN RECEPTOR ANTAGONIST” (Bioorg Med Chem Lett, 1997)
